{"source": "paper PMC7504751", "about": "“Potential of 2-Chloro-N-(4-fluoro-3-nitrophenyl)acetamide Against Klebsiella pneumoniae and In Vitro Toxicity Analysis” (Molecules, 2020)", "key": {"[1]": {"system": "K. pneumoniae (ATCC-700603 and KP-56)", "assay": "Time-kill kinetics", "assay_type": "cell-based, Klebsiella pneumoniae", "method": "The determination of the action time of A2 substance against K. pneumoniae (ATCC-700603 and KP-56) was carried out exposing the microorganisms to concentrations equivalent to MIC and 2× MIC during times 0, 2, 4, 6, 8, 10, and 24 h. After incubation on Mueller–Hinton agar, bacterial colonies were counted. Bactericidal activity was defined as a ≥3-log reduction in bacterial counts (log10 CFU/mL)."}, "[2]": {"system": "K. pneumoniae", "assay": "Effect on bacterial cell integrity (release of 260 nm absorbing material)", "assay_type": "cell-based, Klebsiella pneumoniae", "settings": "compared to negative control, p ≤ 0.0001", "method": "The cell integrity can be assessed by releasing intracellular material, mainly nucleotides, which absorb 260 nm wavelengths. The K pneumoniae strains ATCC-700603, KP-26, KP-56, and KP-143 were used to perform this test. First, the bacterial inoculum was incubated in BHI broth (1 × 10^7 CFU/mL) overnight at 35 ± 2 °C. Then, centrifugation was performed at 400× g for 10 min. The cell pellet was washed three times with sterile PBS (phosphate-buffered saline) and resuspended in PBS containing the A2 substance at MIC and 2× MIC concentrations. As a negative control, suspensions that underwent the same procedures, but without treatment with the substance, were used. The tubes corresponding to the MIC were incubated for 10 h at 35 ± 2 °C, and the tubes corresponding to the 2× MIC, for 6 h. After incubation, the suspensions were centrifuged at 400× g for 10 min and the supernatants were read on a spectrophotometer at 260 nm. All analyses were performed in triplicate."}, "[3]": {"system": "red blood cells (RBC) of the ABO system", "assay": "Antihemolytic activity (osmotic fragility)", "assay_type": "cell-based, human", "settings": "0.24% NaCl", "method": "The tests were performed according to the recommendations established by the Code of Ethics of the World Medical Association, after approval by the ethics committee of the Centro Universitário de Patos (number: 3621284). Blood samples (types A, B, and O) and smears of oral mucosa were donated by young, healthy adults.\nThe analysis of the osmotic fragility of the red cells was performed using previously prepared red blood cell suspensions at 0.5%. Different concentrations (50, 100, 500, and 1000 µg/mL) of the A2 substance were used for the treatment of 0.5% RBC suspensions for 1h at 22 ± 2 °C. The samples were centrifuged at 2500 rpm for 5 min and the supernatant was discarded. The erythrocytes were resuspended in a hypotonic solution of 0.24% sodium chloride for one hour at 22 ± 2 °C. After this period, the samples were centrifuged at 700× g for 5 min and the hemolysis of the supernatant was quantified by spectrophotometry at 540 nm. As controls, a suspension of untreated red blood cells was used as a negative control (0% hemolysis) and in a hypotonic solution as a positive control (100% hemolysis)."}, "[4]": {"system": "oral mucosa cells", "assay": "Genotoxic effects on oral mucosa cells", "assay_type": "cell-based, human", "settings": "for Binucleation / Karyolysis / Karyorrhexis / Micronucleus / Normal: 30 min ex vivo", "method": "The tests were performed according to the recommendations established by the Code of Ethics of the World Medical Association, after approval by the ethics committee of the Centro Universitário de Patos (number: 3621284). Blood samples (types A, B, and O) and smears of oral mucosa were donated by young, healthy adults. First, the oral mucosa cells were collected from the donors, which was done with a cyto-brush (smear collector) in the cheek area, and the material obtained was placed in 5 mL of 0.9% NaCl. As controls, cells treated with hydrogen peroxide −0.0005% (positive control) and untreated cells (negative control) were used. The cells were washed twice with saline and centrifuged for 10 min at 400× g and kept in saline. After the third wash, the cells were exposed (ex vivo) to A2 substance at 50, 100, 500, and 1000 µg/mL concentrations for 30 min. The material was centrifuged and the supernatant was discarded before smear preparation. The cells were homogenized in a vortex and placed on the slides at room temperature for drying for 15 min. Then, they were fixed with methanol: acetic acid (3:1) for 15 min and stained with 2% Giemsa."}}}
{"smiles": "O=C(CCl)Nc1ccc(F)c([N+](=O)[O-])c1", "note": "[A2, 2-chloro-N-(4-fluoro-3-nitrophenyl)acetamide]", "values": [{"measurement": "time of treatment to total reduction of viable cells", "setting": "[1]; A2 at 2× MIC", "result": 6, "unit": "h"}, {"measurement": "time of treatment to total reduction of viable cells", "setting": "[1]; A2 at MIC", "result": 10, "unit": "h"}, {"measurement": "release of 260 nm absorbing material (cell lysis)", "setting": "[2]; 2× MIC, six hours", "result": "Cell lysis is also evident"}, {"measurement": "release of 260 nm absorbing material (cytoplasmic contents)", "setting": "[2]; MIC, 10 h of treatment", "result": "significant release of cytoplasmic contents"}, {"measurement": "percentage of hemolysis in hypotonic solution (anti-hemolytic evaluation)", "setting": "[3]; 1000 µg/mL, type B red blood cells", "result": "> 80", "unit": "%"}, {"measurement": "percentage of hemolysis in hypotonic solution (anti-hemolytic evaluation), class", "setting": "[3]; all concentrations (50–1000 µg/mL), three ABO blood types, except 1000 µg/mL in type B", "result": "moderate (moderate (40% and 80%))"}, {"measurement": "Binucleation", "setting": "[4]; 50 µg/mL", "result": 0.00, "unit": "%"}, {"measurement": "Karyolysis", "setting": "[4]; 50 µg/mL", "result": 1.00, "unit": "%"}, {"measurement": "Karyorrhexis", "setting": "[4]; 50 µg/mL", "result": 1.00, "unit": "%"}, {"measurement": "Micronucleus", "setting": "[4]; 50 µg/mL", "result": 0.50, "unit": "%"}, {"measurement": "Normal", "setting": "[4]; 50 µg/mL", "result": 97.50, "unit": "%"}, {"measurement": "Binucleation", "setting": "[4]; 100 µg/mL", "result": 0.00, "unit": "%"}, {"measurement": "Karyolysis", "setting": "[4]; 100 µg/mL", "result": 3.00, "unit": "%"}, {"measurement": "Karyorrhexis", "setting": "[4]; 100 µg/mL", "result": 4.00, "unit": "%"}, {"measurement": "Micronucleus", "setting": "[4]; 100 µg/mL", "result": 0.50, "unit": "%"}, {"measurement": "Normal", "setting": "[4]; 100 µg/mL", "result": 92.50, "unit": "%"}, {"measurement": "Binucleation", "setting": "[4]; 500 µg/mL", "result": 0.50, "unit": "%"}, {"measurement": "Karyolysis", "setting": "[4]; 500 µg/mL", "result": 4.00, "unit": "%"}, {"measurement": "Karyorrhexis", "setting": "[4]; 500 µg/mL", "result": 5.00, "unit": "%"}, {"measurement": "Micronucleus", "setting": "[4]; 500 µg/mL", "result": 0.70, "unit": "%"}, {"measurement": "Normal", "setting": "[4]; 500 µg/mL", "result": 86.80, "unit": "%"}, {"measurement": "Binucleation", "setting": "[4]; 1000 µg/mL", "result": 0.50, "unit": "%"}, {"measurement": "Karyolysis", "setting": "[4]; 1000 µg/mL", "result": 5.00, "unit": "%"}, {"measurement": "Karyorrhexis", "setting": "[4]; 1000 µg/mL", "result": 7.00, "unit": "%"}, {"measurement": "Micronucleus", "setting": "[4]; 1000 µg/mL", "result": 2.00, "unit": "%"}, {"measurement": "Normal", "setting": "[4]; 1000 µg/mL", "result": 83.50, "unit": "%"}, {"measurement": "normal cells", "setting": "[4]; all tested concentrations (50–1000 µg/mL)", "result": "greater than 80%"}, {"measurement": "melting point", "result": "91 to 93", "unit": "°C"}]}
